Results from US20260234166A1, “FUSED RING COMPOUND AND USE THEREOF” (HITGEN INC., priority 2023, published 2026).
Like-named read-outs stand apart in the source and are kept apart here.

Biological target: CRBN/DDB1 protein (Homo sapiens, UniProt Q96SW2)
Assay: Detection of inhibition of CRBN/DDB1 activity by compounds (FRET)
Type: binding
Protocol: Test Example 1 Detection of Inhibition of CRBN/DDB1 Activity by Compounds (FRET)
Microplate reader (BMG PHERAstar FSX), ECHO (LABCYTE Echo 665), microplate thermostatic oscillator (Hangzhou Ruicheng Instrument Co., Ltd.), disodium hydrogen phosphate (Sigma), sodium dihydrogen phosphate (Sigma), bovine serum albumin (Sigma), Anti-6His-Tb crypate Gold (CISBIO), CRBN/DDB1 protein (HitGen) and 384-well plate (Grenier Bio-one).
The dry powder of the compound was dissolved in DMSO, and the compound was serially diluted using ECHO, and added to a 384-well reaction plate, so that the final concentration of DMSO in the whole reaction system (10.0 μL) was 1.0%, and the same amount of DMSO was added as a control.
20 mM disodium hydrogen phosphate, 20 mM sodium dihydrogen phosphate, 0.08% bovine serum albumin and buffer with pH of 7.0 were used to dilute the CRBN/DDB1 protein to twice the required final concentration (5.0 nM), and 5.0 μL of the diluted CRBN/DDB1 protein was added into the 384-well reaction plate added with compounds, centrifuged at 1000 rpm for 1 min, then placed on a microplate thermostatic oscillator, and pre-incubated at 25° C. and 250 rpm for 15 min. 20 mM disodium hydrogen phosphate, 20 mM sodium dihydrogen phosphate, 0.08% bovine serum albumin and buffer with a pH of 7.0 were used to dilute Anti-6His-Tb crypate Gold and FITC-labeled thalidomide analogues to twice the required final concentration, and the final concentration of Anti-6His-Tb crypate Gold was 0.2 nM, the final concentration of FITC-labeled thalidomide analogues was 50.0 nM, and a mixed solution of Anti-6His-Tb crypate Gold/FITC-labeled thalidomide analogues was obtained. […] After the reaction was completed, the fluorescence signal value (Ex-337 nm Em=520/490 nm) in the 384-well reaction plate was read by the microplate reader. […]
The percentage of residual activity of each concentration was calculated as follows: […]
Then, the dose-effect curve was fitted using GraphPad Prism 6.0 and the IC50 value was calculated accordingly.

Sequence of CRBN/DDB1 protein (Q96SW2 whole entry, species assumed): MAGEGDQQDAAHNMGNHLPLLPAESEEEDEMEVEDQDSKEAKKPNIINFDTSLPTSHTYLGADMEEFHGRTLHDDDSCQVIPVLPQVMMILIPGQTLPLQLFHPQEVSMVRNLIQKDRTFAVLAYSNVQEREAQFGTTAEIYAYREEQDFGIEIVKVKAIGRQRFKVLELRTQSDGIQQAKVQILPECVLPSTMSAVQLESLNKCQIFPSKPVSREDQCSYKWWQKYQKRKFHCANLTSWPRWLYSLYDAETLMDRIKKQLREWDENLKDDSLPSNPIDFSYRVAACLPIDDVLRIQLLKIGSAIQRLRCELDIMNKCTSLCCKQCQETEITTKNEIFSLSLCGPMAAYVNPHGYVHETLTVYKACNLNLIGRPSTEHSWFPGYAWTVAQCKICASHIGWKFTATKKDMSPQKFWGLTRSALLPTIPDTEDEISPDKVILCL
Sequence of CRBN/DDB1 protein (Q16531 whole entry partner, species assumed): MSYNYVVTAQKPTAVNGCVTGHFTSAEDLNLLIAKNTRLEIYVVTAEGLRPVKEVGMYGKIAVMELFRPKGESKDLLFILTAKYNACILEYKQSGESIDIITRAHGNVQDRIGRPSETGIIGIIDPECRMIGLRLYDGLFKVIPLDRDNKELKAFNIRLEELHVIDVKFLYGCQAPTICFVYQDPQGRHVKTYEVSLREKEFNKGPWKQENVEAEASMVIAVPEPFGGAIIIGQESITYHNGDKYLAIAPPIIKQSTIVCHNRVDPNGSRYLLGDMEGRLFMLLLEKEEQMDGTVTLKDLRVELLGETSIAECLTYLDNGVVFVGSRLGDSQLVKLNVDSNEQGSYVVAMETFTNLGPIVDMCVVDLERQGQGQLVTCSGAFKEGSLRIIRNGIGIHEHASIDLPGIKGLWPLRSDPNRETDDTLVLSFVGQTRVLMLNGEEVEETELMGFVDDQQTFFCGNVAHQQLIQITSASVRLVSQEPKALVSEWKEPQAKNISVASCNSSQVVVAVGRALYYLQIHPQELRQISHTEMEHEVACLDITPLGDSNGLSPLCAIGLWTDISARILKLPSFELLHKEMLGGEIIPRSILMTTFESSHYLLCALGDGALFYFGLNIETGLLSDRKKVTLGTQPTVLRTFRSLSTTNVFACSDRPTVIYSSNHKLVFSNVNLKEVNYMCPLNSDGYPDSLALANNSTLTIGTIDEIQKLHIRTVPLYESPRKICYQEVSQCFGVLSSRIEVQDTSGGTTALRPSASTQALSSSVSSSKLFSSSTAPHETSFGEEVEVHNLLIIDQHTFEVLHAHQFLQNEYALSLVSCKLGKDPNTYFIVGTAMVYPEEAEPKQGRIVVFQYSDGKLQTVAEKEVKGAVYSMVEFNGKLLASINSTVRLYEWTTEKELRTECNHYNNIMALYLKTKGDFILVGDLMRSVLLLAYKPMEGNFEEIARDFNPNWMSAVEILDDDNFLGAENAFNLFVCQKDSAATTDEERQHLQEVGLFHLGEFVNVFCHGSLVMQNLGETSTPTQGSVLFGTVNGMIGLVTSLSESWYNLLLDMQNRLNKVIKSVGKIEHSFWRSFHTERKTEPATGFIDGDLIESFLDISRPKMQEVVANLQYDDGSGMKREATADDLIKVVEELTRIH

SMILES	IC50 (FRET, 5.0 nM CRBN/DDB1, 0.2 nM Anti-6His-Tb, 50.0 nM FITC-labeled thalidomide analogue, 1.0% DMSO, 25° C., read-out: IC50, inhibition of CRBN/DDB1 protein)	IC50
CN1Cn2c(c(C(=O)N3CC4(CC(=O)NC4=O)C3)c3ccccc32)C1=O [Compound B5]	11 nM	
O=C1CC2(CN(C(=O)c3c4n(c5ccccc35)CNC4=O)C2)C(=O)N1 [Compound B4]		18 nM
O=C1CC2(CN(C(=O)c3c4n(c5ccccc35)C=NC4=O)C2)C(=O)N1 [Compound B3]		43 nM
